Laboratory results: patent US12274740B2, “Microbiome protection from oral antibiotics” (Theriva Biologics, Inc., priority 2016, dated 2025)
Where “and” joins values, the source holds several entries; their conditions need not be identical. Identical values can stand only once.

Experiments:
[1] = Two arm PK study in dogs: amoxicillin levels in dog serum with or without Formulation 2 (TABLE 17); assay type: in vivo, beagle dogs; conditions: for Amoxicillin levels in dog serum, 0.00 hr: pre-dose
Description: Formulation 2 (TABLE 17) was chosen for evaluation in dogs. A two arm pharmacokinetics (PK) study was performed in three non-naïve male beagle dogs (age 2 years, approximately 12 kg). Animals were fasted overnight prior to the day of dosing in each arm. In Arm 1, the dogs were administered one dose of an amoxicillin suspension (amoxicillin powder, Sandoz, Lot FW1707, reconstituted in apple juice to 400 mg/5 ml) via oral gavage at 80 mg/kg. Animals were returned to their cages post-dose and fed 1.5 hrs after amoxicillin dosing. In Arm 2, dogs were administered an amoxicillin suspension (80 mg/kg, prepared as in Arm 1) via oral gavage. Immediately after the oral amoxicillin was dosed, the animals received one size 4 capsule of Formulation 2 (TABLE 17) containing 10 mg of SYN-004. The capsules were not chewed and were swallowed whole. Capsules were dosed by hand by placing the capsule in the back of the dog's mouth and followed by 6 mL of Mott's 100% apple juice in a syringe. Animals were returned to their cages post-dose and fed 1.5 hrs after amoxicillin dosing. There was a seven day washout period between the two arms. In both arms of the study, blood (approximately 2 mL) was collected for serum PK analysis at pre-dose, and 30 minutes, 1, 2, 3, 4, 6, 8, and 10 hrs post-dose. Serum was collected and immediately frozen at −80° C. Feed was ad-libitum throughout both arms, except during dosing, which was done fasted as described. […] Animals were returned to the colony following the last blood collection.
Serum was analyzed for amoxicillin levels using a validated liquid chromatography (LC) method with tandem mass spectrometry detection (LC/MS/MS). Briefly, the serum samples were extracted using the protein precipitation extraction method and analyzed using reverse phase LC. Amoxicillin and amoxicillin-d4 (internal standard) were detected using tandem MS. The study was performed using Applied Biosystems Triple Quad API 500 LC/MS/MS system with Turbo ion spray interfaces. The data were acquired and analyzed by Applied Biosystems “Analyst” software, version 1.5. The lower limit of quantitation (LLOQ) for amoxicillin was 101.723 ng/ml. The upper limit of quantitation (ULOQ) for amoxicillin was 20344.678 ng/ml. A calibration curve consisting of two control blanks, two zero standards and ten non-zero standards, prepared in naïve dog serum, covering a range of 101.723 to 20344.678 ng/ml, were run with each sample batch. Amoxicillin levels were similar for each animal in Arm 1 and Arm 2 of the study (TABLE 19). The amoxicillin serum levels in Arm 1 and Arm 2 for each dog were plotted separately and the area under the curves was calculated (FIG. 25). The area under the curve for each animal was similar in Arm 1 and Arm 2 of the study. […] Therefore, the strategy to reduce the potential for premature release, release in the small intestine prior to absorption of orally-delivered amoxicillin, by using FS 30 D-coated SYN-004 layered sucrose pellets incorporated inside FS 30 D-coated capsule, or the “nested” strategy, was successful as indicated by the similar amoxicillin blood levels in each dog with and without SYN-004.

[2] = Piglet study of modified nested SYN-004 formulation with oral amoxicillin; assay type: in vivo, Yorkshire piglets; conditions: pig serum three hours after oral amoxicillin 40 mg/kg
Description: Formulation 2 (TABLE 17) capsules consisting of FS 30 D-coated SYN-004 pellets within FS 30 D-coated capsules were prepared for testing in normal piglets. For this formulation, size 9H gelatin capsules (small capsules, 2.7 mm diameter, 5 mm length) were filled with 3 pellets of FS 30 D-coated SYN-004 sucrose cores, then coated with FS 30 D. The coated 9H capsule containing the SYN-004 pellets was then inserted into a size 5 gelatin capsule for ease of delivery to the pigs (FIG. 26). Each FS 30 D-coated pellet of SYN-004 contained […] of SYN-004. Therefore, the total SYN-004 dose was 0.5 mg/size 5 gelatin capsule. The anticipated advantage of this nested strategy using the small 9H capsules is that the gelatin capsule will dissolve in the stomach, releasing the small FS 30 D-coated 9H capsule that is protected from stomach acid and is small enough to pass through the gastric pylorus without the need for stomach emptying. […] Amoxicillin levels were similar in animals treated with amoxicillin alone and with amoxicillin plus the SYN-004 (FIG. 27; TABLE 20).

in vivo = conditions: Yorkshire, pig
Description: A study was performed using normal piglets to compare the three, modified-release formulations of SYN-004 as described in Example 2, and the original SYN-004 formulation (Enteric pH 5.5) as described in Example 1, delivered orally with oral amoxicillin, to evaluate the effect on amoxicillin serum levels and protection of the microbiome from amoxicillin-induced dysbiosis (FIG. 20).
A total of 25, two month old Yorkshire piglets, approximately 20 kg each, were used for this study. All 25 animals were treated with oral amoxicillin twice a day for a total of 7 days, in addition, Groups 2-5 received SYN-004 four times a data starting the day before amoxicillin treatment for a total of 9 days (TABLE 7).
On Study Day 0, Groups 2-5 (Pigs 6-25) received one size 0 capsule of one of each of the four SYN-004 formulations, containing 50 mg of SYN-004, orally, four times a day at 7 am, 12 pm, 5 pm, and 10 pm for a total of 9 days. Pigs were fed 3 times a day, after SYN-004 dosing at 7 am, after SYN-004 dosing at 12 pm, and after SYN-004 dosing at 5 pm. Beginning on Study Day 1, all groups, 1-5 (Pigs 1-25), received oral amoxicillin (fruit flavored oral suspension, Sandoz, NDC: 0781-6157-46, Lot #FB0703; 20 mg/kg) twice a day at 7 am and at 5 pm, for a total of 7 days. […]
Amoxicillin levels in the pig serum were quantified using a validated liquid chromatography method with MS/MS detection.

[3] = Arm 1: amoxicillin 80 mg/kg oral gavage alone
[4] = Arm 2: amoxicillin 80 mg/kg + one capsule Formulation 2 (TABLE 17), 10 mg SYN-004

Amoxicillin levels in dog serum, 0.50 hr [1, 3]: 17908.396 ng/mL and 16720.439 ng/mL
Amoxicillin levels in dog serum, 2.00 hr [1, 4]: 30317.167 ng/mL and 35935.251 ng/mL
concentration at 10 h ([1]; male, beagle, dog, serum, oral, 80 mg/kg, Arm 1: amoxicillin 80 mg/kg oral gavage alone): 183 ng/mL
concentration at 0.5 h ([1]; male, beagle, dog, serum, oral, 80 mg/kg, Arm 1: amoxicillin 80 mg/kg oral gavage alone, read-out: Amoxicillin levels in dog serum, 0.50 hr): 12600 ng/mL
concentration at 2 h ([1]; male, beagle, dog, serum, oral, Arm 2: amoxicillin 80 mg/kg + one capsule Formulation 2 (TABLE 17), 10 mg SYN-004): 18700 ng/mL
area under the curve, Arm 1 versus Arm 2 ([1]; serum amoxicillin, each animal): similar
concentration at 3 h ([2]; Yorkshire, pig, serum, oral, 40 mg/kg, Amoxicillin Serum Levels (ng/ml) Mean, alone or with SYN-004 0.5 mg, 5 pigs, heading: Amoxicillin Serum Levels Mean): 182 ng/mL
concentration at 3 h (in vivo; Amoxicillin (ng/ml) 3 hours): 1160 to 2320 ng/mL
concentration at 6 h (in vivo; Amoxicillin (ng/ml) 6 hours): 667 to 1160 ng/mL
SMILES: CC1(C)S[C@@H]2[C@H](NC(=O)[C@H](N)c3ccc(O)cc3)C(=O)N2[C@H]1C(=O)O [Amoxicillin]
Amoxicillin levels in dog serum, 0.00 hr [1, 3]: BLQ (BLQ: Below lower limit of quantitation)
Amoxicillin levels in dog serum, 0.00 hr [1, 4]: BLQ (BLQ: Below lower limit of quantitation)
Amoxicillin Serum Levels (ng/ml), individual animal ([2]; alone or with one capsule SYN-004 modified nested formulation (0.5 mg)): 29647 ng/mL and 6498 ng/mL and 25130 ng/mL and 14936 ng/mL and 14757 ng/mL
